Columns and labels:
[1] = molecular target: recombinant rat α1β3γ2 receptors (Rattus norvegicus, UniProt P18508+P62813); experiment: Two-electrode voltage clamp of GABA-induced chloride currents in Xenopus oocytes; assay type: cell-based; conditions: α1β3γ2; for efficacy (% GABA EC3): ns = not significant
[2] = molecular target: recombinant rat α2β3γ2F77I receptors (Rattus norvegicus, UniProt P18508+P23576, F115I); experiment: as above; assay type: cell-based; conditions: α2β3γ2F77I, ns = not significant
[3] = molecular target: recombinant rat α2β3γ2 receptors (Rattus norvegicus, UniProt P18508+P23576); experiment: as above; assay type: cell-based; conditions: α2β3γ2, ns = not significant
Sequence of recombinant rat α2β3γ2 receptors (P23576 29-451): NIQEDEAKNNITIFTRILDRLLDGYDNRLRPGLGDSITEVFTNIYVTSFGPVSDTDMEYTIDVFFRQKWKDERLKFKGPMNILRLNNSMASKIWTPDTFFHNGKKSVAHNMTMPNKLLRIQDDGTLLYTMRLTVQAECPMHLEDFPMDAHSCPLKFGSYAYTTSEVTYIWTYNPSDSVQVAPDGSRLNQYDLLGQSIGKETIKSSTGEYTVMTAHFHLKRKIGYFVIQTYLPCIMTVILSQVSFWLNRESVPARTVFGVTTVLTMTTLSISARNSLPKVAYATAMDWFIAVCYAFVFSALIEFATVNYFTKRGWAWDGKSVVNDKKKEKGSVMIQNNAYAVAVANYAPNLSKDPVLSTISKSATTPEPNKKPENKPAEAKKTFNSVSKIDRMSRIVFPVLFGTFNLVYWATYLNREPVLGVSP
Sequence of recombinant rat α2β3γ2 receptors (P63079 26-473 partner): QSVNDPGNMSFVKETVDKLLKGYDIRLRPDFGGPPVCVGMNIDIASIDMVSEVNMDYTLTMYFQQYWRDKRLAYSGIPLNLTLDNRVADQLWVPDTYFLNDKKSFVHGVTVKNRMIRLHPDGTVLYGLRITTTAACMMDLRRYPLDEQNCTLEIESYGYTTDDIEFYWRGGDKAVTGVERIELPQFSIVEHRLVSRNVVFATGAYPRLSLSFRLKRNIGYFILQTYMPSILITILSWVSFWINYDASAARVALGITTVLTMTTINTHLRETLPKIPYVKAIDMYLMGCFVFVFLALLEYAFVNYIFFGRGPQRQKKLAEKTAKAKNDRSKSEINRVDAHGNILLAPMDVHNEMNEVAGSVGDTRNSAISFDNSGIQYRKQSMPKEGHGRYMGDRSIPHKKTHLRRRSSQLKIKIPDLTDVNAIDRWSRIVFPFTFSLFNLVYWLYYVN
Sequence of recombinant rat α2β3γ2 receptors (P18508 39-466): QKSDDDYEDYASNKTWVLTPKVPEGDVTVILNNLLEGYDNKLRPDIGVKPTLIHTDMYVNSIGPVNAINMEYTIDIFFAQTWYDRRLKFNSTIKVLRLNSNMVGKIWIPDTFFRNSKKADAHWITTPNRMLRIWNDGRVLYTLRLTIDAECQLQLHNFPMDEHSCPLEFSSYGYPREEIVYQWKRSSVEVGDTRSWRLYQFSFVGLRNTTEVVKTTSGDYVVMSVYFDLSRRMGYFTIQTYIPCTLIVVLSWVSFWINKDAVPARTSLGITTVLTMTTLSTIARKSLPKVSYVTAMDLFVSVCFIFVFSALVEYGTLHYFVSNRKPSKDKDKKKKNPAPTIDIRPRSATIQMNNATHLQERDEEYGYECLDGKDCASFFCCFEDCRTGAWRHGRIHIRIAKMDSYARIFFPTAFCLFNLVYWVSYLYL

[4] = molecular target: recombinant rat α4β3γ2 receptors (Rattus norvegicus, UniProt P18508+P28471); experiment: as above; assay type: cell-based; conditions: for efficacy (% GABA EC3): ns = not significant
[5] = molecular target: recombinant rat α6β3γ2 receptors (Rattus norvegicus, UniProt P18508+P30191); experiment: as above; assay type: cell-based; conditions: α6β3γ2; for efficacy (% GABA EC3): ns = not significant
[6] = molecular target: recombinant rat α5β3γ2F77I receptors (Rattus norvegicus, UniProt P18508+P19969, F115I); experiment: as above; assay type: cell-based; conditions: α5β3γ2F77I, ns = not significant
Sequence of recombinant rat α5β3γ2F77I receptors (P19969 32-464 limits assumed): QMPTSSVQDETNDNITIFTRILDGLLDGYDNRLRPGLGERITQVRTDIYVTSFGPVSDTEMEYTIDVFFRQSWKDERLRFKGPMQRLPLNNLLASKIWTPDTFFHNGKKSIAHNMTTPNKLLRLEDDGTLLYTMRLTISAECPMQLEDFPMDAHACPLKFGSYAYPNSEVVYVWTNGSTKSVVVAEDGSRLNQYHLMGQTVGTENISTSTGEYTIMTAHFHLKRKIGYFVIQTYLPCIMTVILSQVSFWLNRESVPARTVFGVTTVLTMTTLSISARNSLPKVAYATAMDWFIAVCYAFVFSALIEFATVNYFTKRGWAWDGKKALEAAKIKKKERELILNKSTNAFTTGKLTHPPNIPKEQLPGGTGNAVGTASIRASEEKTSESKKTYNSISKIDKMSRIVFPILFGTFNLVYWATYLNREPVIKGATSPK
Sequence of recombinant rat α5β3γ2F77I receptors (P63079 26-473 partner): as the sequence (P63079 26-473 partner) above
Sequence of recombinant rat α5β3γ2F77I receptors (P18508 39-466 F115I): as the sequence (P18508 39-466) above, with F77I counted along it

[7] = molecular target: recombinant rat α6β3γ2F77I receptors (Rattus norvegicus, UniProt P18508+P30191, F115I); experiment: as above; assay type: cell-based; conditions: ns = not significant
[8] = molecular target: recombinant rat α3β3γ2 receptors (Rattus norvegicus, UniProt P18508+P20236); experiment: as above; assay type: cell-based; conditions: α3β3γ2, ns = not significant
[9] = molecular target: recombinant rat α5β3γ2 receptors (Rattus norvegicus, UniProt P18508+P19969); experiment: as above; assay type: cell-based; conditions: α5β3γ2; for efficacy (% GABA EC3): ns = not significant
Sequence of recombinant rat α5β3γ2 receptors (P19969 32-464 limits assumed): as the sequence (P19969 32-464 limits assumed) above
Sequence of recombinant rat α5β3γ2 receptors (P63079 26-473 partner): as the sequence (P63079 26-473 partner) above
Sequence of recombinant rat α5β3γ2 receptors (P18508 39-466): as the sequence (P18508 39-466) above

[10] = molecular target: recombinant rat α4β3γ2F77I receptors (Rattus norvegicus, UniProt P18508+P28471, F115I); experiment: as above; assay type: cell-based; conditions: ns = not significant
[11] = molecular target: recombinant rat α3β3γ2F77I receptors (Rattus norvegicus, UniProt P18508+P20236, F115I); experiment: as above; assay type: cell-based; conditions: α3β3γ2F77I, ns = not significant
[12] = system: GABAA receptors containing the γ2F77I mutation; experiment: Modulation of GABA EC3 in receptors containing the γ2F77I mutation; assay type: cell-based, rat
[13] = molecular target: recombinant rat α1β3γ2F77I receptors (Rattus norvegicus, UniProt P18508+P62813, F115I); experiment: Two-electrode voltage clamp of GABA-induced chloride currents in Xenopus oocytes; assay type: cell-based; conditions: α1β3γ2F77I, ns = not significant
[14] = system: GABAA receptors of mice containing the point mutation γ2F77I; conditions: receptor binding; ref Ogris et al., 2004; cited from earlier work

Question: For `CCOC(=O)c1ncn2c1CN(C)C(=O)c1cc(F)ccc1-2` [Ro15–1788, ethyl-8-fluoro-5,6-dihydro-5-methyl-6-oxo-4H-imidazo[1,5-a][1,4]benzodiazepine-3-carboxylate], which “efficacy (% GABA EC3)” value ([1]; 10 nM) is on record?
Answer: ns

Question: And the “efficacy (% GABA EC3)” value ([1]; 100 nM)?
Answer: ns

Question: What about the “efficacy (% GABA EC3)” value ([1]; 1 μM) of the same molecule?
Answer: ns

Question: And the “efficacy (% GABA EC3)” value ([1]; 10 μM)?
Answer: ns

Question: And the “maximal effect on GABA-induced chloride flux (GABA EC3), % of control current” value (from here on “maximal effect … % of control current”) ([1]; control current = 100%)?
Answer: no significant effects

Question: What about the “efficacy (% GABA EC3)” value ([2]; 10 nM) of the same molecule?
Answer: ns

Question: And the “efficacy (% GABA EC3)” value ([2]; 100 nM)?
Answer: ns

Question: And the “efficacy (% GABA EC3)” value ([2]; 1 μM)?
Answer: ns

Question: What about the “efficacy (% GABA EC3)” value ([2]; 10 μM) of the same molecule?
Answer: ns

Question: What about the “efficacy (% GABA EC3)” value ([3]; 10 nM) of the same molecule?
Answer: 121 ± 2 % GABA EC3

Question: What about the “efficacy (% GABA EC3)” value ([3]; 100 nM) of the same molecule?
Answer: 128 ± 4 % GABA EC3

Question: What about the “efficacy (% GABA EC3)” value ([3]; 1 μM) of the same molecule?
Answer: 130 ± 5 % GABA EC3

Question: And the “efficacy (% GABA EC3)” value ([3]; 10 μM)?
Answer: 133 ± 7 % GABA EC3

Question: And the EC50 [4]?
Answer: > 232 nM

Question: And the “efficacy (% GABA EC3)” value ([4]; 10 nM, α4β3γ2)?
Answer: ns

Question: And the “efficacy (% GABA EC3)” value ([4]; 100 nM, α4β3γ2)?
Answer: 132 ± 8 % GABA EC3

Question: And the “efficacy (% GABA EC3)” value ([4]; 1 μM, α4β3γ2)?
Answer: 162 ± 19 % GABA EC3

Question: What about the “efficacy (% GABA EC3)” value ([4]; 10 μM, α4β3γ2) of the same molecule?
Answer: 181 ± 10 % GABA EC3

Question: And the “efficacy (% GABA EC3)” value ([5]; 10 nM)?
Answer: ns

Question: What about the “efficacy (% GABA EC3)” value ([5]; 100 nM) of the same molecule?
Answer: 128 ± 18 % GABA EC3

Question: And the “efficacy (% GABA EC3)” value ([5]; 1 μM)?
Answer: 166 ± 9 % GABA EC3

Question: And the “efficacy (% GABA EC3)” value ([5]; 10 μM)?
Answer: 179 ± 6 % GABA EC3

Question: What about the “efficacy (% GABA EC3)” value ([6]; 10 nM) of the same molecule?
Answer: ns

Question: And the “efficacy (% GABA EC3)” value ([6]; 100 nM)?
Answer: ns

Question: And the “efficacy (% GABA EC3)” value ([6]; 1 μM)?
Answer: ns

Question: What about the “efficacy (% GABA EC3)” value ([6]; 10 μM) of the same molecule?
Answer: ns

Question: And the “efficacy (% GABA EC3)” value ([7]; 10 nM)?
Answer: ns

Question: What about the “efficacy (% GABA EC3)” value ([7]; 100 nM) of the same molecule?
Answer: ns

Question: What about the “efficacy (% GABA EC3)” value ([7]; 1 μM) of the same molecule?
Answer: ns

Question: What about the “efficacy (% GABA EC3)” value ([7]; 10 μM) of the same molecule?
Answer: ns

Question: What about the “efficacy (% GABA EC3)” value ([8]; 10 nM) of the same molecule?
Answer: 128 ± 4 % GABA EC3

Question: And the “efficacy (% GABA EC3)” value ([8]; 100 nM)?
Answer: 148 ± 7 % GABA EC3

Question: And the “efficacy (% GABA EC3)” value ([8]; 1 μM)?
Answer: 156 ± 8 % GABA EC3

Question: And the “efficacy (% GABA EC3)” value ([8]; 10 μM)?
Answer: 157 ± 8 % GABA EC3

Question: And the “efficacy (% GABA EC3)” value ([9]; 10 nM)?
Answer: ns

Question: And the “efficacy (% GABA EC3)” value ([9]; 100 nM)?
Answer: ns

Question: And the “efficacy (% GABA EC3)” value ([9]; 1 μM)?
Answer: ns

Question: And the “efficacy (% GABA EC3)” value ([9]; 10 μM)?
Answer: ns

Question: And the “maximal effect … % of control current” value ([9]; control current = 100%)?
Answer: no significant effects

Question: What about the “efficacy (% GABA EC3)” value ([10]; 10 nM) of the same molecule?
Answer: ns

Question: What about the “efficacy (% GABA EC3)” value ([10]; 100 nM) of the same molecule?
Answer: ns

Question: And the “efficacy (% GABA EC3)” value ([10]; 1 μM)?
Answer: ns

Question: And the “efficacy (% GABA EC3)” value ([10]; 10 μM)?
Answer: ns

Question: What about the “efficacy (% GABA EC3)” value ([11]; 10 nM) of the same molecule?
Answer: ns

Question: What about the “efficacy (% GABA EC3)” value ([11]; 100 nM) of the same molecule?
Answer: 106 ± 1 % GABA EC3

Question: And the “efficacy (% GABA EC3)” value ([11]; 1 μM)?
Answer: 118 ± 2 % GABA EC3

Question: And the “efficacy (% GABA EC3)” value ([11]; 10 μM)?
Answer: 139 ± 4 % GABA EC3

Question: And the “activity in the mutated receptors” value ([12]; up to 100 nM)?
Answer: inactive

Question: And the “efficacy (% GABA EC3)” value ([13]; 10 nM)?
Answer: ns

Question: And the “efficacy (% GABA EC3)” value ([13]; 100 nM)?
Answer: ns

Question: And the “efficacy (% GABA EC3)” value ([13]; 1 μM)?
Answer: ns

Question: What about the “efficacy (% GABA EC3)” value ([13]; 10 μM) of the same molecule?
Answer: ns

Question: Which “efficacy (% GABA EC3)” value ([2]; 100 nM) does the source give for `Cc1ccc(-c2nc3ccc(C)cn3c2CC(=O)N(C)C)cc1` [Zolpidem, N,N,6-trimethyl-2-(4-methylphenyl)imidazo[1,2-a]-pyridine-3-acetamide] here?
Answer: ns

Question: And the “efficacy (% GABA EC3)” value ([2]; 1 μM)?
Answer: ns

Question: What about the “efficacy (% GABA EC3)” value ([2]; 10 μM) of the same molecule?
Answer: 145 ± 3 % GABA EC3

Question: What about the “efficacy (% GABA EC3)” value ([4]; 100 nM, α4β3γ2) of the same molecule?
Answer: ns

Question: What about the “efficacy (% GABA EC3)” value ([4]; 1 μM, α4β3γ2) of the same molecule?
Answer: ns

Question: And the “efficacy (% GABA EC3)” value ([4]; 10 μM, α4β3γ2)?
Answer: ns

Question: And the “maximal effect … % of control current” value ([4]; α4β3γ2, control current = 100%)?
Answer: did not significantly enhance

Question: And the “efficacy (% GABA EC3)” value ([5]; 10 μM)?
Answer: ns

Question: What about the “maximal effect … % of control current” value ([5]; control current = 100%) of the same molecule?
Answer: did not significantly enhance

Question: And the “efficacy (% GABA EC3)” value ([6]; 100 nM)?
Answer: ns

Question: And the “efficacy (% GABA EC3)” value ([6]; 1 μM)?
Answer: ns

Question: And the “shift in affinity caused by γ2F77I” value [14]?
Answer: approximately 300 fold

Question: What about the “efficacy (% GABA EC3)” value ([9]; 100 nM) of the same molecule?
Answer: ns

Question: What about the “efficacy (% GABA EC3)” value ([9]; 1 μM) of the same molecule?
Answer: ns

Question: And the “efficacy (% GABA EC3)” value ([9]; 10 μM)?
Answer: ns

Question: And the “efficacy (% GABA EC3)” value ([9]; 10 μM, listed as zolpidem)?
Answer: unable to modulate

Question: And the “efficacy (% GABA EC3)” value ([11]; 100 nM)?
Answer: ns

Question: And the “efficacy (% GABA EC3)” value ([11]; 1 μM)?
Answer: ns

Question: And the “efficacy (% GABA EC3)” value ([11]; 10 μM)?
Answer: 145 ± 5 % GABA EC3

Question: What about the “stimulation of GABA-induced chloride flux” value ([12]; 10 μM, some γ2F77I receptors) of the same molecule?
Answer: 20–40%

Question: What about the “efficacy (% GABA EC3)” value ([13]; 100 nM) of the same molecule?
Answer: ns

Question: What about the “efficacy (% GABA EC3)” value ([13]; 1 μM) of the same molecule?
Answer: ns

Question: And the “efficacy (% GABA EC3)” value ([13]; 10 μM)?
Answer: 142 ± 8 % GABA EC3

Reference: publication PMC7615656 (European journal of pharmacology, 2010)
